pIC50: −log10 of the molar value. Values after ≈ are worked out from the molar mass of the structure shown. Like-named read-outs stand apart in the source and are kept apart here. Where only a bound is given, the exact number is not on record here.

Series [1] concerns HIV-1 NL432. Nature of the series: Anti-HIV/SIV activity in infected Molt-4 cells, virus amount by RT activity. In kind it is cell-based. The settings on record: RT activity of supernatant at 5 days postinfection. On the procedure:
(§1) (1) Molt-4 cells (2×10^6 cells) were infected with HIV-1 NL432 (4×10^6 cpm), HIV-2 Rod (8×10^6 cpm), SIVmac MA239 (8×10^6 cpm) and SIVagm SA212 (8×10^6 cpm), and incubated for 1 hr at room temperature.
(§2) (1) Preparation of HIV-1 NL432: SW480 cells were cultured in DMEM medium supplemented with 10% fetal bovine serum using 25 cm^2 flask. HIV-1 infectious molecular DNA (40 μg), pNL432, transfected to the cells by calcium phosphate coprecipitation method, and the supernatant (2 ml) at 2-3 days post-transfection was infected to M8166 cells (1×10^6 cells). The cells were cultured in 10 ml RPMI medium supplemented with 10% fetal bovine serum in CO2 incubator at 37° C. After apparent giant cells were observed, the cells were removed by centrifugation and then the supernatant was filtrated by 0.45 μm filter, measured RT activity, and stored at −80° C. as HIV-1 stock virus.
(§3) (2) The cells were washed twice to remove the viruses and suspended in 10 ml RPMI medium supplemented with 10% fetal bovine serum. The infected cells (100 μl) were plated in 96 well microtiter plates containing with the serial 5 fold dilution of compounds (100 μl) and cultured in CO2 incubator at 37° C.
(§4) (3) The supernatant at 5 days postinfection was harvested and measured the amount of the virus by RT activity.
(§5) Preparation of the solution for RT assay:
(§6) A reaction mixture (90 μl) were contained 50 mM Tris-HCl, pH 8.3, 150 mM KCl, 10 mM MgCl2, 0.1% Nonidet P-40, 10 mM DTT (dithiothreitol), 5 μg/ml poly(rA), 5 μg/ml (dT)12-18 and 1 μCi [^3H] dTTP at final concentration after mixture of a sample (10 μl).
(§7) The procedure of RT assay:
(§8) 1. 10 μl of sample was plated to 3 wells of 96 well microtiter plate (triplicate assay).
(§9) 2. Reaction mixture (90 μl) chilled at 4° C. was added to each well, mixed and then incubate at 37° C. for 3 hrs.
(§10) 3. After incubation, the plate was chilled on ice, and passed through a DEAE-Filtermat using cell harvester. The filter was washed with 4.5% Na2HPO4 (20 sec) and H2O (10 sec).
(§11) 4. The filter was dried at 95° C. for 15 min.
(§12) 5. 10 ml of scintilator was added and sealed.
(§13) 6. Radioactivity was measured by LKB Beta Plate scintillation spectroscopy.
(§14) 7. RT activity (cpm/ml) was calculated from average of three wells.

In series [2] the test system is HIV-2 Rod. The description is as above. In kind it is cell-based. Particulars: RT activity of supernatant at 5 days postinfection. As for the experimental part: as §1
(2) Preparation of […] Rod: HIV-2 Rod was infected to M8166 cells (1×10^6 cells). The cells were cultured in 10 ml RPMI medium supplemented with 10% fetal bovine serum in CO2 incubator at 37° C. After apparent giant cells were observed, the cells were removed by centrifugation and then the supernatant was filtrated by 0.45 μm filter, measured RT activity, and stored at −80° C. as HIV-2 stock virus.
as §3, §4, §5, §6, §7, §8, §9, §10, §11, §12, §13, §14

The subject of series [3] is SIVmac MA239. The description is as above. In kind it is cell-based. The settings on record: RT activity of supernatant at 5 days postinfection. As for the experimental part: as §1
as §2, with “(3) Preparation” for “(1) Preparation”, “of SIVmac MA239:” for “of HIV-1 NL432:”, “flask. SIVmac MA239” for “flask. HIV-1”, “μg), pMA239,” for “μg), pNL432,”, “to CEMX174” for “to M8166”, “as SIVmac” for “as HIV-1”
as §3, §4, §5, §6, §7, §8, §9, §10, §11, §12, §13, §14

The test system of series [4] is SIVagm SA212. The series is described as above. In kind it is cell-based. Particulars: RT activity of supernatant at 5 days postinfection. As for the experimental part: as §1
(4) Preparation of SIVagm SA212: SW480 cells were cultured in DMEM medium supplemented with 10% fetal bovine serum using 25 cm^2 flask. SIVagm SA212 infectious molecular DNA (40 μg), pSA212, transfected to the cells by calcium phosphate coprecipitation methods, and the supernatant (2 ml) at 2-3 days post-transfection was infected to M8166 cells (1×10^6 cells). The cells were cultured in 10 ml RPMI medium supplemented with 10% fetal bovine serum in CO2 incubator at 37° C. Every 3 days, the cells were separated from the supernatant by centrifugation and continued culture with new medium. The each supernatant was filtrated by 0.45 μm filter, measured RT activity, and stored at −80° C. as SIVagm stock virus.
as §3, §4, §5, §6, §7, §8, §9, §10, §11, §12, §13, §14

The target in series [5] is HIV-1 integrase (Human immunodeficiency virus type 1 group M subtype B, UniProt P12497). Nature of the series: HIV-1 integrase inhibition assay (microtiter plate, substrate/target DNA, OD 405 nm).
Experimental: (2) Calculations of the Percent Inhibitions (the IC50 Values of Test Compounds)
Streptavidin, obtained from Vector Laboratories, was dissolved in 0.1 M carbonate buffer (composition: 90 mM Na2CO3, 10 mM NaHCO3) at concentration of 40 μg/ml. After coating each well of microtiter plates (obtained from NUNC) with 50 μl of the above solution at 4° C. over night, each well was washed twice with PBS (composition: 13.7 mM NaCl, 0.27 mM KCl, 0.43 mM Na2HPO4, 0.14 mM KH2PO4) and blocked with 300 μl of 1% skim milk in PBS for 30 min. Additionally, each well was washed twice with PBS and added 50 μl of substrate DNA solution (2 pmol/μl). The microtiter plates were kept at room temperature for 30 min. Then, each well was washed twice with PBS and once with H2O.
Subsequently, in the each well prepared above were added 45 μl of the reaction buffer prepared from 12 μl of the buffer (composition: 150 mM MOPS (pH 7.2), 75 mM MnCl2, 50 mM 2-mercaptoethanol, 25% glycerol, 500 μg/ml bovine serum albumin-fraction V), 1 μl of target DNA (5 pmol/μl), and 32 μl of the distilled water. Additionally, 6 μl of either a test compound in DMSO or DMSO for positive control(PC) was mixed with the above reaction buffer, then 9 μl of an integrase solution (30 pmol) was added and mixed well. In the well of negative control (NC) was added 9 μl of the integrase dilution buffer (composition: 20 mM MOPS (pH7.2), 400 mM potassium glutamate, 1 mM EDTA, 0.1% NP-40, 20% glycerol, 1 mM DTT, 4M urea).
The microtiter plates were incubated at 30° C. for 1 hour. The reaction solution was removed and each well was washed twice with PBS. Subsequently, each well of the microtiter plates was filled with 100 μl of anti-digoxigenin antibody labeled with alkaline phosphatase (Sheep Fab fragment: obtained from Boehringer) and incubated at 30° C. for 1 hour. Then, each well was washed twice with 0.05% Tween20 in PBS and once with PBS. Next, 150 μl of the Alkaline phosphatase reaction buffer (composition: 10 mM p-Nitrophenylphosphate (obtained from Vector Laboratories), 5 mM MgCl2, 100 mM NaCl, 100 mM Tris-HCl (pH 9.5))was added in each well. […] The optical density (OD) at 405 nm of each well was measured and the percent inhibition was determined by the following expression.
The percent inhibition (%)=100[1-{(C abs.−NC abs.)/(PC abs.−NC abs.)}]
C abs.; the OD of the well of the compounds
NC abs.: the OD of the negative control (NC)
PC abs.: the OD of the positive control (PC)
IC50(μg/ml)=x−{(X−50)(x−y)/(X−Y)}
In series [6] the test system is feline immunodeficiency virus (FIV TM-2 strain). Nature of the series: Anti-FIV activity in MYA-1 feline T-cells, virus amount by RT activity. In kind it is cell-based. Particulars: FIV TM-2 in MYA-1 cells, RT activity at 10 days postinfection. On the procedure:
(1) The serial 5 fold diluted samples were plated in 24 well microtiter plate. Feline T-cell lines (MYA-1 cells: 4×10^5 cells/well) and feline immunodeficiency virus (FIV TM-2 strain: 3000 cpm/well) were added to each well. The cells were cultured with 1.5 ml RPMI medium supplemented with 10% fetal bovine serum, 2 μg/ml polybrene, 100 unit/ml human recombinant IL-2 and 50 μM 2-mercaptoethanol in CO2 incubator at 37° C.
1. Preparation of FIV TM-2: FIV TM-2 was infected to MYA-1 cells (1×10^6 cells). The cells were cultured in 10 ml RPMI medium supplemented with 10% fetal bovine serum, 2 μg/ml polybrene, 100 unit/ml human recombinant IL-2 and 50 μM 2-mercaptoethanol in CO2 incubator at 37° C. Every 1-2 days, the cells were separated from the supernatant by centrifugation and continued culture with new medium. Each of the supernatant was filtrated by 0.45 μm filter, measured RT activity, and stored at as −80° C. as FIV stock virus.
(2) Every 1-2 days, the supernatants were measured the amount of the virus by RT activity (as same as experimental example 2).

[7] abbreviates: Simian immunodeficiency virus, 120 h.

With `Nc1ccn([C@@H]2CS[C@H](CO)O2)c(=O)n1` [3TC], the “Anti-HIV/SIV activity EC50, HIV-1 NL432” value in series [1] was found to be 0.0084 µg/mL. Further, the “Anti-HIV/SIV activity EC50, HIV-2 Rod” value in series [2] stood at 0.022 µg/mL. Also, the “Anti-HIV/SIV activity EC50, SIVmac” value in series [3] came out at 0.0091 µg/mL. Moreover, the “Anti-HIV/SIV activity EC50, SIVagm” value in series [4] was 0.022 µg/mL.
As for `Cn1ccnc1C(O)=CC(=O)c1ccc(Cc2ccc(F)cc2)o1` [I-100, 1-[5-(4-Fluorobenzyl)furan-2-yl]-3-hydroxy-3-(1-methyl-1H-imidazol-2-yl)-propenone], the melting point (commonly the temperature of the solid-liquid transition) is 56 to 57 °C. Further, the pIC50 – broadly, the negative decadic logarithm of the IC50, by convention in mol/L – in series [5] was 5.31.
As to `O=C(C=C(O)c1nc[nH]n1)c1cc(Cl)c(Cc2ccc(F)cc2)o1` [I-86, 1-[4-Chloro-5-(4-fluorobenzyl)furan-2-yl]-3-hydroxy-3-(1H-1,2,4-triazol-3-yl)-propenone], the melting point is 203 to 204 °C. In series [5], this molecule had a pIC50 of 5.84.
In the case of `Cc1cc(Cc2ccc(F)cc2)oc1C(=O)C=C(O)c1nc[nH]n1` [I-61, 1-[[5-(4-Fluorobenzyl)-3-methyl]furan-2-yl]-3-hydroxy-3-(1H-1,2,4-triazol-3-yl)-propenone], the melting point is 191 to 192 °C. For the same molecule, in series [5], the pIC50 is 5.68.
The molecule `O=C(C=C(O)c1nc[nH]n1)c1ccc(Cc2ccsc2)o1` [I-85, 3-Hydroxy-1-[[5-(thiophen-3-yl)methyl]furan-2-yl]-3-(1H-1,2,4-triazol-3-yl)-propenone] showed a melting point of 210 to 211 °C. In series [5], this molecule had a pIC50 of 5.33.
The like results for `O=C(C=C(O)c1nc[nH]n1)c1ccc(Sc2ccc(F)cc2F)o1` [I-70, 1-[5-(2,4-Difluorophenylthio)furan-2-yl]-3-hydroxy-3-(1H-1,2,4-triazol-3-yl)-propenone] were, in that order, 158 to 160 °C and 5.92.
The like results for `CC(C)c1nc(C(O)=CC(=O)c2ccc(Cc3ccc(F)cc3)o2)n[nH]1` [I-99, 1-[5-(4-Fluorobenzyl)furan-2-yl]-3-hydroxy-3-(5-isopropyl-1H-1,2,4-triazol-3-yl)-propenone] were, in that order, 146 to 147 °C and 5.73.
The like results for `O=C(O)C(O)=CC(=O)c1ccc(Cc2ccc(F)cc2)o1` [I-54, 4-[5-(4-Fluorobenzyl)furan-2-yl]-2-hydroxy-4-oxo-2-butenoic acid] were, in that order, 145 to 148 °C and 6.08.
Consider `Cc1cn([C@H]2C=C[C@@H](CO)O2)c(=O)[nH]c1=O` [d4T], for which the “Anti-HIV/SIV activity EC50, HIV-1 NL432” value in series [1] is 0.0061 µg/mL. Also, the “Anti-HIV/SIV activity EC50, HIV-2 Rod” value in series [2] was 0.0041 µg/mL. Further, the “Anti-HIV/SIV activity EC50, SIVmac” value in series [3] was 0.0034 µg/mL. Besides, the “Anti-HIV/SIV activity EC50, SIVagm” value in series [4] worked out at 0.0045 µg/mL.
In the case of `Cc1ccnc2c1NC(=O)c1cccnc1N2C1CC1` [nevirapine], the EC50 (in general, the concentration at which the effect is half-maximal) in series [1] (Human immunodeficiency virus 1, 120 h) is 0.013 µg/mL (≈ 0.0488 µM); in series [2] (Human immunodeficiency virus 2, 120 h) it was over 20 µg/mL; in series [3] (setting [7]), over 20 µg/mL; in series [4] (setting [7]), over 20 µg/mL.
`Cc1nc(C(O)=CC(=O)c2ccc(Cc3ccc(F)cc3)o2)cs1` [I-96, 1-[5-(4-Fluorobenzyl)furan-2-yl]-3-hydroxy-3-(2-methylthiazol-4-yl)-propenone] registered a melting point of 96 to 98 °C. The pIC50 in series [5] was 5.61.
The like results for `Cc1nc(C(O)=CC(=O)c2ccc(Cc3ccc(F)cc3)o2)n[nH]1` [I-60, 1-[5-(4-Fluorobenzyl)furan-2-yl]-3-hydroxy-3-(5-methyl-1H-1,2,4-triazol-3-yl)-propenone] were, in that order, 179 to 182 °C and 5.68.
On the same counts, the results for `O=C(C=C(O)c1nc[nH]n1)c1ccc(C(O)c2ccc(F)cc2)o1` (stereo not drawn) [I-94, 1-[5-(4-Fluorophenyl-hydroxy-methyl)furan-2-yl]-3-hydroxy-3-(1H-1,2,4-triazol-3-yl)-propenone] are 191 to 192 °C (dec.) and 5.31.
For `CC(C)c1nc(COC(N)=O)n(Cc2ccncc2)c1Sc1cc(Cl)cc(Cl)c1` [S-1153], the “Anti-HIV/SIV activity EC50, HIV-1 NL432” value in series [1] was determined as 0.00077 µg/mL. In addition, the “Anti-HIV/SIV activity EC50, HIV-2 Rod” value in series [2] was over 4 µg/mL. Also, the “Anti-HIV/SIV activity EC50, SIVmac” value in series [3] was over 4 µg/mL. The “Anti-HIV/SIV activity EC50, SIVagm” value in series [4] was determined as 1.5 µg/mL. Also, the EC50 in series [6] was over 5 µg/mL.
`COCc1nc(C(O)=CC(=O)c2ccc(Cc3ccc(F)cc3)o2)n[nH]1` [I-97]: the melting point lay within 167 to 168 °C. Further, the pIC50 in series [5] is 5.77.
`O=C(C=C(O)c1nc[nH]n1)c1ccc(Cc2ccccc2Cl)o1` [I-80, 1-[5-(2-Chlorobenzyl)furan-2-yl]-3-hydroxy-3-(1H-1,2,4-triazol-3-yl)-propenone] came in with a melting point of 169 to 171 °C. The pIC50 in series [5] is 5.79.
As to `O=C(/C=C(\O)c1nc[nH]n1)c1ccc(Cc2ccc(F)cc2)o1` [I-42, 1-[5-(4-fluorobenzyl)furan-2-yl]-3-hydroxy-3-(1H-1,2,4-triazol-3-yl)-propenone], in series [6] (Feline immunodeficiency virus, T-cell, 240 h, read-out: EC50), the EC50 turned out to be 0.3 µg/mL (≈ 0.958 µM).
Molecule `CCc1nc(C(O)=CC(=O)c2ccc(Cc3ccc(F)cc3)o2)n[nH]1` [I-98, 3-(5-Ethyl-1H-1,2,4-triazol-3-yl)-1-[5-(4-fluorobenzyl)furan-2-yl]-3-hydroxy-propenone] returned a melting point of 204 to 205 °C. In series [5], the pIC50 is 5.87.
On the same counts, the results for `CCCc1nc(C(O)=CC(=O)c2ccc(Cc3ccc(F)cc3)o2)n[nH]1` [I-112, 1-[5-(4-Fluorobenzyl)furan-2-yl]-3-hydroxy-3-(5-propyl-1H-1,2,4-triazol-3yl)-propenone] are 167 to 168 °C and 5.77.
`O=C(C=C(O)c1nc[nH]n1)c1ccc(Cc2ccsc2Cl)o1` [I-91, 1-[[5-(2-Chlorothiophen-3-yl)methyl]furan-2-yl]-3-hydroxy-3-(1H-1,2,4-triazol-3-yl)-propenone] registered a melting point of 105 to 106 °C. Further, the pIC50 in series [5] was 5.75.

For the origin of these results see patent US6620841B1, “Aromatic heterocycle compounds having HIV integrase inhibiting activities” (Shionogi & Co., Ltd., priority 1998, dated 2003).
